Laboratory results as given in paper PMC11641365, “Evaluation of In Vitro Biological Activity of Flavanone/Chromanone Derivatives: Molecular Analysis of Anticancer Mechanisms in Colorectal Cancer” (International Journal of Molecular Sciences, 2024).

Columns and labels:
Assay type in all cases: cell-based, human
HT-29 = assay: Hydrogen peroxide level, H2DCFDA probe; conditions: compound at IC50, 24 h, vs control
Protocol: Cellular H2O2 levels were assessed using 2′,7′-dichlorodihydrofluorescein diacetate (H2DCFDA, Sigma-Aldrich, St. Louis, MO, USA), a well-established fluorogenic probe for intracellular hydrogen peroxide detection. H2DCFDA readily diffuses across the cell membrane and is subsequently hydrolyzed by intracellular esterases to non-fluorescent H2DCF. Oxidation of H2DCF by ROS generates highly fluorescent 2′,7′-dichlorofluorescein (DCF), which accumulates in the cytosol. […] The fluorescence intensity of DCF is directly proportional to the concentration of ROS within the cell.
(§1) Cells were seeded in black 96-well fluorometric microplates at a density of 10 × 10^3 cells/mL. […] Following compound incubation, the medium was removed, and the cell monolayers were washed twice with HBSS (140 mM NaCl, 5 mM KCl, 0.8 mM MgCl2, 1.8 mM CaCl2, 1 mM Na2HPO4, 10 mM HEPES, and 1% glucose). A volume of 50 µL of H2DCFDA solution in HBSS (final concentration 5 μM) was added to each well, and the cells were incubated for 30 min in the dark at 37 °C. After incubation with the H2DCFDA, fluorescence measurements were conducted using a Perkin-Elmer LS-5B spectrofluorometer (MA, USA) at the following excitation and fluorescence emission wavelengths: λex = 498 nm/λem = 522 nm. The fluorescence intensity of control cells was arbitrarily assigned a value of 100%. The results were expressed as percentages of control, calculated by comparing the fluorescence intensity ratio of the test samples to controls (100%). The fluorescence of samples was denoted as Δf in relation to the control.

SW620 [1] = assay: Alkaline comet assay (DNA damage); conditions: compound at IC50, 12 h, vs control group
Text: Single-cell gel electrophoresis, also known as the comet assay, is a rapid and sensitive method for assessing DNA damage at the single-cell level. Cells are lysed and electrophoresed. Both single-strand and double-strand breaks are detected under alkaline conditions. The released DNA is denatured and moves in the agarose gel toward the anode during electrophoresis. The image, obtained after staining with the fluorescent dye 4′,6-diamidino-2-phenylindole (DAPI), resembles a “comet” with a distinct “head” (intact DNA) and “tail” (damaged DNA fragments). The length of the tail depends on the number and size of the broken DNA strands.
Cells (1 × 10^3) were seeded in 35 mm dishes and cultured in the medium for 24 h to attain the logarithmic growth phase. […] Quantitative analysis of the DNA comet image of preparations stained with DAPI solution (2 μg/L) was performed using a camera connected to a fluorescence microscope. The comet DNA analysis was performed under a Nikon Eclipse fluorescence microscope (Nikon, Tokyo, Japan) equipped with a 4910 COHU video camera (Cohu, Inc., San Diego, CA, USA) and a computer with Lucia-Comet v. […] Each time, from each preparation, 100 randomly selected comets were counted. The extent of DNA damage is quantified by measuring the length of the comet tail and the amount of DNA it contains. […]

Caco-2 = assay: Superoxide anion level, DHE probe; conditions: compound at IC50, 24 h, vs control
Protocol: (§2) Superoxide anion (O2^•−) levels were quantified using a microplate spectrofluorometric assay with dihydroethidium (DHE) (Life Technologies, Carlsbad, CA, USA). DHE is a well-established fluorogenic probe for intracellular superoxide detection. […] The reaction between superoxide and DHE produces a highly specific red fluorescent product, 2-hydroxyethidium (2-OH-E ^+).
as §1, with “DHE” for “H2DCFDA”, “DHE,” for “H2DCFDA,”, “(Waltham, MA,” for “(MA,”, “582” for “522”

HCT 116 = assay: Superoxide anion level, DHE probe; conditions: compound at IC50, 24 h, vs control
Protocol: as §2
as §1, with “DHE” for “H2DCFDA”, “DHE,” for “H2DCFDA,”, “(Waltham, MA,” for “(MA,”, “582” for “522”

SW620 [2] = assay: Superoxide anion level, DHE probe; conditions: compound at IC50, 24 h, vs control
Protocol: as §2
as §1, with “DHE” for “H2DCFDA”, “DHE,” for “H2DCFDA,”, “(Waltham, MA,” for “(MA,”, “582” for “522”

Compound: O=C1/C(=C/c2ccccc2)C(c2ccccc2)Oc2ccccc21 (stereo not drawn) [Compound 5]
- Increase in H2O2 levels (HT-29): around 15%

Compound: COc1cccc(/C=C2/C(=O)c3ccccc3OC2c2ccccc2)c1 (stereo not drawn) [Compound 3]
- Increase in DNA content in the comet tail (SW620 [1]): approximately 40%

Compound: O=C1/C(=C/c2ccccc2)COc2ccccc21 [Compound 1]
- Increase in O2−• (superoxide anion) levels (Caco-2): 30%
- Increase in O2−• (superoxide anion) levels (HCT 116): 10–15%
- Increase in O2−• (superoxide anion) levels (SW620 [2]): 10–15%
- Increase in H2O2 levels (HT-29): approximately 25%
